Our source for the IC50 values is US11161830B2, “4-pyridone compound or salt thereof, and pharmaceutical composition and formulation including same” (priority 2017, dated 2021).

As usually defined, the IC50 is the concentration at which inhibition is half-maximal.

Where two headings read alike, the source gives them in different places.

The test system of assay [1] is HBV (genotype CAT). As to the kind of experiment: Test Example 2-2: anti-HBV assay in PXB-cells (fresh human hepatocytes). The conditions noted are these: Hepatitis B virus, Hepatocyte. The assay is classed as cell-based. How it is done: Using fresh human hepatocytes (PXB-cells, manufactured by PhenixBio Co., Ltd.) collected from a PXB mouse (a chimeric mouse with human hepatocytes), the anti-HBV activity of the representative compounds was evaluated in the following procedure.
(§1) The following was used as a medium:
DMEM (manufactured by Sigma)+0.25 μg/mL insulin (manufactured by Wako)+1% penicillin/streptomycin. (manufactured by Sigma)+20 mmol/L HEPES (manufactured by Sigma)+15 μg/mL L-proline (manufactured by Sigma)+50 nmol/L dexamethasone (manufactured by Sigma)+5 ng/mL EGF (manufactured by Peprotech)+0.1 mmol/L ascorbic acid 2-phosphate (manufactured by Wako)+10% FBS+2% DMSO
Each of the test compounds) was further added to the medium to prepare a test solution containing each of the test compounds at various concentrations.
(1) PXB-cells seeded at a seeding density of 2.1×10^5 cells/cm^2 in a 96-well microliter plate were incubated in a 5% CO2 incubator at 37° C. until a day on which the cells were infected.
(2) A HBV (genotype CAT) prepared by transfecting an HBV plasmid into an HepG2 cell was suspended in the medium containing 4% PEG-8000, and added to the plate of (1) at about 30 copies/cell such that the PXB cells were infected (100 μL/well), and the plate was incubated in a 5% CO2 incubator at 37° C. for 1 day.
(3) The culture supernatant on day 1 post infection was removed and the cells were washed three times with DMEM containing 10% FBS and 1% penicillin/streptomycin. Then, the medium was added to the plate (100 μL/well) and the plate was incubated in a 5% CO2 incubator at 37° C. for 1 day.
(4) The culture supernatant on day 2 post infection was removed and the cells were washed three times with DMEM containing 10% FBS and 1% penicillin/streptomycin. Then, the medium was added to the plate (100 μL/well) and the plate was incubated in a 5% CO2 incubator at 37° C. for 5 days.
(5) The culture supernatant on day 7 post infection was removed, the medium was added to the plate (100 μL/well), and the plate was incubated in a 5% CO2 incubator at 37° C. for 5 days.
(6) The culture supernatant on day 12 post infection was removed, the medium was added to the plate (100 μL/well), and the plate was incubated in a 5% CO2 incubator at 37° C. for 5 days.
(7) The culture supernatant on day 17 post infection was removed, the test solution was added to the plate (100 μL/well), and the plate was incubated in a 5% CO2 incubator at 37° C. for 5 days. As a control without the compound added, the medium was added to the plate (100 μL/well) and the plate was incubated in a 5% CO2 incubator at 37° C. for 5 days.
(8) The culture supernatant on day 22 post infection was removed, the test solution was added to the plate (100 μL/well), and the plate was incubated in a 5% CO2 incubator at 37° C. for 5 days. As a control without the compound added, the medium was added to the plate (100 μL/well) and the plate was incubated in a 5% CO2 incubator at 37° C. for 5 days.
(9) The culture supernatant on day 27 post infection was removed, the test solution was added to the plate (100 μL/well), and the plate was incubated in a 5% CO2 incubator at 37° C. for 5 days. As a control without the compound added, the medium was added to the plate (100 μL/well) and the plate was incubated in a 5% CO2 incubator at 37° C. for 5 days.
(10) The culture supernatant on day 32 post infection was collected.
(11) The collected culture supernatant on day 32 post infection was treated with a mixture of Buffer AL (manufactured by QIAGEN) and Proteinase K (manufactured by Invitrogen). The amount of HBV-DNA in the obtained solution was absolutely quantified by a real-time PCR method. In addition, the amount of HBsAg in the culture supernatant was absolutely quantified by chemiluminescent enzyme immunoassay using Lumipulse (registered trademark) HBsAg-HQ (manufactured by Fujirebio Inc.). A relative viral load (%) with respect to a control without the compound added was each calculated. […]

The test system of assay [2] is HBV. As to the kind of experiment: Test Example 1-2: anti-HBV assay in HepG2.2.15 cells (test solution 100 μL/well). The assay is classed as cell-based, hepatitis B virus. The settings on record: culture supernatant. How it is done:
Using HepG2.2.15 cells (Proc. Natl. Acad. Sci. USA, 84, 1005-1009, 1987) which have an HBV genome introduced into a hepatoblastoma cell line, HepG2, and persistently produce a virus, the anti-HBV activity of the representative compounds was evaluated in the following procedure.
as §1
DMEM/F-12, GlutaMAX (manufactured by Invitrogen)+5 μg/mL insulin (manufactured by Wako)+1% penicillin/streptomycin (manufactured by Sigma)+10 mmol/L HEPES (manufactured by Sigma)+50 μmol/L hydrocortisone (manufactured by Sigma)+10% FBS
A mixture of a test compound with dimethyl sulfoxide (DMSO) was further added to the medium to obtain a final concentration of DMSO of 0.25% (v/v), and thus, test solutions containing the test compound at various concentrations were prepared. In addition, a test solution obtained by adding DMSO alone to the medium to obtain a final concentration of 0.25% (v/v) was prepared as a control without addition of a drug.
(1) The HepG2.2.15 cells were suspended in the medium to prepare a. HepG2.2.15 cell suspension at 4×10^5 cells/mL. The suspension was seeded in a 96-well microtiter plate (100 μL/well) and the plate was incubated in a 5% CO2 incubator at 37° C. for 2 days.
(2) The culture supernatant was removed and the cells were washed twice with PBS (−) (100 μL/well).
(3) The test solution (200 μL/well) was added to the plate of (2) and the plate was incubated in a 5% CO2 incubator at 37° C. for 4 days.
(4) The culture supernatant was removed, the test solution (200 μL/well) was added again to the plate, and the plate was incubated in a 5% CO2 incubator at 37° C. for 3 days.
(5) The culture supernatant was collected and treated with a mixture of Buffer AL (manufactured by QIAGEN) and Proteinase K (manufactured by Invitrogen). The amount of DNA of HBV (HBV-DNA) in the obtained solution was absolutely quantified by a real-time PCR method. In addition, HBsAg (hepatitis B surface antigen) in the culture supernatant was absolutely quantified by chemiluminescent enzyme immunoassay using Lumipulse (registered trademark) HBsAg-HQ (manufactured by Fujirebio Inc.). The relative viral load (%) of a well with the compound added to a well without the compound added was calculated. An IC50 of the compound was calculated using a FORECAST function (linear regression method) of Microsoft Office Excel 2007 by plotting the logarithm of the concentration against the relative viral load as a real number.
The IC50 of HBV-DNA was defined as a concentration (or a logarithm dilution of the culture supernatant) of the compound, in which the amount of HBV-DNA is reduced by 50% as compared a control without the compound added.
In addition, the IC50 of HBsAg was defined as a concentration (or a logarithm dilution of the culture supernatant) of the compound, in which the amount of HBsAg is reduced by 50% as compared a control without the compound added.
The test was performed by the same method as in Test Example 1-1 except that the amounts of the test solutions of (3) and (4) of Test Example 1-1 was changed to 100 μL/well.

Where [3] appears, read: read-out: IC50 HBV-DNA, PXB-cells infected with HBV genotype CAT, culture supernatant on day 32 post infection.
Setting [4] is: read-out: IC50 HBsAg, PXB-cells infected with HBV genotype CAT, culture supernatant on day 32 post infection.
[5] abbreviates: Hepatitis B virus, read-out: IC50 HBV-DNA.
The mark [6] stands for this setting: Hepatitis B virus, read-out: IC50 HBsAg.

Take `CN(C)[C@H]1CCN(c2nc3ccc(-n4cc(C(=O)O)c(=O)cc4-c4ccc(N5CCCC5)cc4)cc3s2)C1` [Example 17-1, (S)-1-(2-(3-(dimethylamino)pyrrolidin-1-yl)benzo[d]thiazol-6-yl)-4-oxo-6-(4-(pyrrolidin-1-yl)phenyl)-1,4-dihydropyridine-3-carboxylic acid]: the IC50 in assay [1] (setting [3]) and in assay [1] (setting [4]) was less than 500 nM in each case.
Turning to `CN(C)[C@@H]1CCN(c2nc3ccc(-n4cc(C(=O)O)c(=O)cc4-c4ccc(N5CCCC5)cc4)cc3s2)C1` [Example 17-2, (R)-1-(2-(3-(dimethylamino)pyrrolidin-1-yl)benzo[d]thiazol-6-yl)-4-oxo-6-(4-(pyrrolidin-1-yl)phenyl)-1,4-dihydropyridine-3-carboxylic acid], the IC50 in assay [1] (setting [3]) and in assay [1] (setting [4]) was less than 500 nM each time.
As for `CO[C@H]1CCN(c2nc3ccc(-n4cc(C(=O)O)c(=O)cc4-c4ccc(N5CCCC5)cc4)cc3s2)C1` [Example 17-3, (S)-1-(2-(3-methoxypyrrolidin-1-yl)benzo[d]thiazol-6-yl)-4-oxo-6-(4-(pyrrolidin-1-yl)phenyl)-1,4-dihydropyridine-3-carboxylic acid], the IC50 in assay [1] (setting [3]) and in assay [1] (setting [4]) was less than 500 nM in each case.
Regarding `COC1CN(c2nc3ccc(-n4cc(C(=O)O)c(=O)cc4-c4ccc5c(c4)OC[C@@H]4CCCN54)cc3s2)C1` [Example 18-2, (S)-1-(2-(3-methoxyazetidin-1-yl)benzo[d]thiazol-6-yl)-4-oxo-6-(2,3,3a,4-tetrahydro-1H-benzo[b]pyrrolo[1,2-d][1,4]oxazin-7-yl)-1,4-dihydropyridine-3-carboxylic acid], the IC50 in assay [1] (setting [3]) and in assay [1] (setting [4]) was less than 500 nM in each case.
In the case of `COCCO[C@@H]1CCN(c2ccc(-c3cc(=O)c(C(=O)O)cn3-c3ccc4nc(N5CCOCC5)sc4c3)cc2)C1` [Example 19-1, (R)-6-(4-(3-(2-methoxyethoxy)pyrrolidin-1-yl)phenyl)-1-(2-morpholinobenzo[d]thiazol-6-yl)-4-oxo-1,4-dihydropyridine-3-carboxylic acid], the IC50 in assay [1] (setting [3]) and in assay [1] (setting [4]) was less than 500 nM each time.
`CO[C@@H]1CCN(c2ccc(-c3cc(=O)c(C(=O)O)cn3-c3ccc4nc(N5CCOCC5)sc4c3)cc2F)C1` [Example 20-1, (R)-6-(3-fluoro-4-(3-methoxypyrrolidin-1-yl)phenyl)-1-(2-morpholinobenzo[d]thiazol-6-yl)-4-oxo-1,4-dihydropyridine-3-carboxylic acid]: the IC50 in assay [1] (setting [3]) and in assay [1] (setting [4]) was less than 500 nM in each case.
In the case of `CO[C@@H]1CCN(c2ccc(-c3cc(=O)c(C(=O)O)cn3-c3ccc4nc(N5CC(OCC6CCCO6)C5)sc4c3)cc2F)C1` (stereo partly drawn) [Example 23-3, 6-(3-fluoro-4-((R)-3-methoxypyrrolidin-1-yl)phenyl)-4-oxo-1-(2-(3-((tetrahydrofuran-2-yl)methoxy)azetidin-1-yl)benzo[d]thiazol-6-yl)-1,4-dihydropyridine-3-carboxylic acid], the IC50 in assay [2] (setting [5]) came out at 0.61 nM; in assay [2] (setting [6]), 1.7 nM.
Regarding `CO[C@@H]1CCN(c2ccc(-c3cc(=O)c(C(=O)O)cn3-c3ccc4nc(N5CC(OCCF)C5)sc4c3)cc2F)C1` [Example 23-4], the values for the IC50 in assay [2] (read-out: IC50 HBV-DNA) and in assay [2] (read-out: IC50 HBsAg) were 0.88 nM and 3.8 nM, respectively.
The matching figures for `COCCCOC1CN(c2nc3ccc(-n4cc(C(=O)O)c(=O)cc4-c4ccc(N5CC[C@@H](OC)C5)c(F)c4)cc3s2)C1` [Example 23-5]: 0.5 nM and 2.7 nM.
Take `CCOC1CN(c2nc3ccc(-n4cc(C(=O)O)c(=O)cc4-c4ccc(N5CC[C@@H](OC)C5)c(F)c4)cc3s2)C1` [Example 23-6, (R)-1-(2-(3-ethoxyazetidin-1-yl)benzo[d]thiazol-6-yl)-6-(3-fluoro-4-(3-methoxypyrrolidin-1-yl)phenyl)-4-oxo-1,4-dihydropyridine-3-carboxylic acid]: the figures for the IC50 in assay [2] (setting [5]) and in assay [2] (setting [6]) were 0.45 nM and 1.1 nM, respectively.
For the molecule `CO[C@@H]1CCN(c2ccc(-c3cc(=O)c(C(=O)O)cn3-c3ccc4nc(N5CC(OC(C)C)C5)sc4c3)cc2F)C1` [Example 23-7, (R)-6-(3-fluoro-4-(3-methoxypyrrolidin-1-yl)phenyl)-1-(2-(3-isopropoxyazetidin-1-yl)benzo[d]thiazol-6-yl)-4-oxo-1,4-dihydropyridine-3-carboxylic acid], the IC50 in assay [2] (setting [5]) is 0.65 nM; in assay [2] (setting [6]), 1.1 nM.
Consider `CO[C@@H]1CCN(c2ccc(-c3cc(=O)c(C(=O)O)cn3-c3ccc4nc(N5CC(C)(OC)C5)sc4c3)cc2F)C1` [Example 23-8, (R)-6-(3-fluoro-4-(3-methoxypyrrolidin-1-yl)phenyl)-1-(2-(3-methoxy-3-methylazetidin-1-yl)benzo[d]thiazol-6-yl)-4-oxo-1,4-dihydropyridine-3-carboxylic acid], for which the IC50 in assay [2] (setting [5]) was 0.89 nM; in assay [2] (setting [6]) it was 1.4 nM.
For the molecule `COCCOC1CN(c2nc3ccc(-n4cc(C(=O)O)c(=O)cc4-c4ccc(N5CC[C@@H](OC)C5)c(F)c4)cc3s2)C1` [Example 23-9], the IC50 in assay [2] (read-out: IC50 HBV-DNA) was found to be 0.68 nM; in assay [2] (read-out: IC50 HBsAg), 1.8 nM.
